Patent US4332891A, “Process for the production of antibiotic Cephamycin C” (Otsuka Pharmaceutical Co., Ltd., priority 1979, dated 1982)
In brackets after ≈: the same amount, converted by molar mass.

Experiments:
[1] = system: Staphylococcus aureus FDA 209P; assay: Antimicrobial spectrum (MIC); format: cell-based; settings: FDA209P
Excerpt: (§1) The antimicrobial spectra to various microorganisms of the Cephamycin C produced by the process of this invention are shown as minimum inhibitory concentrations (MIC) in Table 4.

[2] = system: Staphylococcus aureus Newman; assay: Antimicrobial spectrum (MIC); format: cell-based
Excerpt: as §1

[3] = system: Proteus vulgaris IID OX-19; assay: Antimicrobial spectrum (MIC); format: cell-based; settings: IIDOX19
Excerpt: as §1

[4] = system: Bacillus subtilis PCI 219; assay: Antimicrobial spectrum (MIC); format: cell-based; settings: PCI219
Excerpt: as §1

[5] = system: Sarcina lutea PCI 1001; assay: Antimicrobial spectrum (MIC); format: cell-based; settings: Micrococcus luteus, PCI1001
Excerpt: as §1

[6] = system: Salmonella typhi 0-901 NCTC 8393; assay: Antimicrobial spectrum (MIC); format: cell-based; settings: Salmonella enterica
Excerpt: as §1

[7] = system: Proteus mirabilis 1287; assay: Antimicrobial spectrum (MIC); format: cell-based
Excerpt: as §1

[8] = system: Esherichia coli NIHJ; assay: Antimicrobial spectrum (MIC); format: cell-based
Excerpt: as §1

[9] = Solubility; format: physicochemical

For `COC1(NC(=O)CCCC(N)C(=O)O)C(=O)N2C(C(=O)O)=C(COC(N)=O)CS[C@@H]21` (some centres unmarked) [Cephamycin C, 7-(5-amino-5-carboxyvalerylamino)-3-carbamoyloxymethyl-7-methoxy-3-cephem-4-carboxylic acid], the MIC [1] was 250 µg/mL (≈ 560 µM), the MIC [2] was 250 µg/mL (≈ 560 µM) and the MIC [3] was 7.8 µg/mL (≈ 17.5 µM). For the same compound, the MIC [4] was 15.6 µg/mL (≈ 34.9 µM), the MIC [5] was 15.6 µg/mL (≈ 34.9 µM) and the MIC [6] was 3.9 µg/mL (≈ 8.74 µM). The MIC [7] was 7.8 µg/mL (≈ 17.5 µM), the MIC [8] was 15.6 µg/mL (≈ 34.9 µM) and the Solubility ([9]; in dimethylsulfoxide) was “slightly soluble in dimethylsulfoxide”. The Solubility ([9]; in ethanol) was “sparingly soluble in ethanol” and the Solubility ([9]; in water) was “well soluble in water”.
